Test results: ChEMBL document CHEMBL5244260, “Aldose reductase and protein tyrosine phosphatase 1B inhibitors as a promising therapeutic approach for diabetes mellitus” (Eur J Med Chem, 2020)
One block for each compound: values may come before it.

How the values were obtained:
[1] = target: T1, Tyrosine-protein phosphatase non-receptor type 1 (Homo sapiens, UniProt P18031); assay: Inhibition of PTP1B (unknown origin)
T1 sequence (P18031 whole entry): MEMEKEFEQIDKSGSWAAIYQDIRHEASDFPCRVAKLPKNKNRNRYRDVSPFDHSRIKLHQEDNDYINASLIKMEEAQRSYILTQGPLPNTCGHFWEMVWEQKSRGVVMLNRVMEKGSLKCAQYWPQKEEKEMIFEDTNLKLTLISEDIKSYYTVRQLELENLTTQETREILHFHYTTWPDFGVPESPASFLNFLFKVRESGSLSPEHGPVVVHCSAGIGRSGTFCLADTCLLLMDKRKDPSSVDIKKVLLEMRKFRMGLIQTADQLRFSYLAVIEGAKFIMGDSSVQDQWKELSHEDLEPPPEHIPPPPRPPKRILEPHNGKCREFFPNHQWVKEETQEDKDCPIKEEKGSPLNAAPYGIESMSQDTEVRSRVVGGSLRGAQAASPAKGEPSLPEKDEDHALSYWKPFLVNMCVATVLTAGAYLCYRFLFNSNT

[2] = target: T1, Tyrosine-protein phosphatase non-receptor type 1; assay: Inhibition of human PTP1B (1 to 321 residues) expressed in Escherichia coli using FDP as substrate
[3] = target: T2, Receptor-type tyrosine-protein phosphatase C (Homo sapiens, UniProt P08575); assay: Inhibition of human CD45 (564 to […] residues) expressed in Escherichia coli using FDP as substrate incubated for 10 min
T2 sequence (P08575 whole entry): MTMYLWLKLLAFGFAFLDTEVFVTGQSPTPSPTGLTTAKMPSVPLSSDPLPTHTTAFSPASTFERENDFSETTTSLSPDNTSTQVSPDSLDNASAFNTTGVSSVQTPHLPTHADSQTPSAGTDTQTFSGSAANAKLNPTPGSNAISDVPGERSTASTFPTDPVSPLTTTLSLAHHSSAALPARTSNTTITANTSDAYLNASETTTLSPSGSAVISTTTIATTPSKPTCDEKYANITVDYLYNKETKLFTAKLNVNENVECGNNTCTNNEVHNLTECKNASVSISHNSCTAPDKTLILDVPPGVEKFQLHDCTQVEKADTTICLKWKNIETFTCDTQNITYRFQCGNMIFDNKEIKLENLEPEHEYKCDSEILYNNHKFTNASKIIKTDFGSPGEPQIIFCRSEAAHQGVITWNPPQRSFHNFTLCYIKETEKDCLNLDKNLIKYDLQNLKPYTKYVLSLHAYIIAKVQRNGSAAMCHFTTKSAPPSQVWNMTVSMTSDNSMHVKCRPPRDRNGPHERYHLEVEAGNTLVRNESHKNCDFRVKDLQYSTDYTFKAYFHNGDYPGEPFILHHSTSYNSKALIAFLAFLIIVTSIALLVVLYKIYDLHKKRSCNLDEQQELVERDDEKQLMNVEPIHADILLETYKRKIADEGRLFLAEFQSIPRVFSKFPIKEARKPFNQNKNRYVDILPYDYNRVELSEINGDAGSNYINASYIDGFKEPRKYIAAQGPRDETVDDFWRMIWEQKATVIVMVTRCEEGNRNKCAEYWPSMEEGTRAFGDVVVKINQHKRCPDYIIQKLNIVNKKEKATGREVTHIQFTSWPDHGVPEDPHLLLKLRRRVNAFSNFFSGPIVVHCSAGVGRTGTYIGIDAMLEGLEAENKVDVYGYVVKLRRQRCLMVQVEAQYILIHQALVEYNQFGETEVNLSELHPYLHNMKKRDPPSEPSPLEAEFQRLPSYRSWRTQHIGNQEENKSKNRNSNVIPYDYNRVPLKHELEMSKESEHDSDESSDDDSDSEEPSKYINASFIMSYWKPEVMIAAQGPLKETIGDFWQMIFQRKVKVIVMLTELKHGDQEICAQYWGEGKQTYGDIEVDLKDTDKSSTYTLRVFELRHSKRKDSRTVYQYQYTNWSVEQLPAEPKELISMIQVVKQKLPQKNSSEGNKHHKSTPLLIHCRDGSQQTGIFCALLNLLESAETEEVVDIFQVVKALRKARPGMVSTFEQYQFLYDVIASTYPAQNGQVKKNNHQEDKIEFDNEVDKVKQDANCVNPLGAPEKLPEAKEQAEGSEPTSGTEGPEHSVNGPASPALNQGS

[4] = organism: Homo sapiens; assay: Selectivity ratio of IC50 for human PTP1B (1 to 321 residues) to IC50 for human CD45 (564 to […] residues)
[5] = target: T1, Tyrosine-protein phosphatase non-receptor type 1; assay: Inhibition of human PTP1B (1 to 298 residues) expressed in Escherichia coli using FDP as substrate by microplate reader
[6] = target: T1, Tyrosine-protein phosphatase non-receptor type 1; assay: Inhibition of PTP1B (unknown origin) using OMFP as substrate by fluorescence assay
[7] = organism: Homo sapiens; assay: Selectivity ratio of Ki for PTP1B (unknown origin) to Ki for TCPTP (unknown origin)
[8] = Inhibition of ALR2 in calf lens using D,L-glyceraldehyde as substrate in presence of NADPH by spectrophotometric assay; format: tissue-based, Bos taurus
[9] = Inhibition of ALR2 in rat lens using D,L-glyceraldehyde as substrate in presence of NADPH; format: tissue-based
[10] = target: T1, Tyrosine-protein phosphatase non-receptor type 1; assay: Inhibition of PTP1B (unknown origin) assessed as inhibition constant
[11] = target: Aldo-keto reductase family 1 member B1 (Homo sapiens, UniProt P15121); assay: Inhibition of ALR2 (unknown origin)
[12] = target: T1, Tyrosine-protein phosphatase non-receptor type 1; assay: Inhibition of human PTP1B (1 to 411 residues) expressed in Escherichia coli BL21 (DE3) using GNGDpYMPMSPKS as phosphopeptide substrate incubated for 30 mins by malachite green reagent assay

SMILES: COC(=O)C(Cc1ccc(C(F)(F)P(=O)(O)O)cc1)(Cc1ccc(C(F)(F)P(=O)(O)O)cc1)C(=O)OCc1ccccc1
- IC50 [2]: 40 nM
- Ratio IC50 [4]: 250

SMILES: CCCCCCCCCCCCCCCCOc1ccccc1NC(=O)c1ncccc1C(=O)O
- IC50 [1]: 140 nM

SMILES: O=P(O)(O)C(F)(F)c1ccc(C[C@](c2ccc(C(F)(F)P(=O)(O)O)cc2)(c2ccc(F)c(F)c2)n2nnc3ccccc32)cc1
- IC50 [5]: 13 nM

SMILES: O=C(OCc1ccccc1)C(Cc1ccc(C(F)(F)P(=O)(O)O)cc1)(Cc1ccc(C(F)(F)P(=O)(O)O)cc1)C(=O)OCc1ccccc1
- IC50 [2]: 40 nM
- Ratio IC50 [4]: 250

SMILES: CCc1cc(CC(NC(C)=O)C(=O)NCCCCOc2cc(Cl)cc(O)c2C(=O)OC)ccc1N(C(=O)C(=O)O)c1ccccc1C(=O)O (stereo not drawn)
- Ratio Ki [7]: 6

SMILES: COc1cccc2c1C=CC1CC(=O)N(C/C=C/C(=O)O)N=C21 (stereo not drawn)
- IC50 [8]: 4250 nM

SMILES: CC(C(=O)O)N1C(=O)C(=O)N(Cc2ccc(Cl)c(Cl)c2)C1=O (stereo not drawn)
- IC50 [9]: 75 nM

SMILES: O=P(O)(O)C(F)(F)c1ccc(C[C@](/C=C/c2ccccc2)(c2nc3ccccc3s2)n2nnc3ccccc32)cc1
- IC50 [5]: 23 nM

SMILES: CC(C)OC(=O)C(Cc1ccc(C(F)(F)P(=O)(O)O)cc1)(Cc1ccc(C(F)(F)P(=O)(O)O)cc1)C(=O)OC(C)C
- IC50 [2]: 40 nM
- Ratio IC50 [4]: 250

SMILES: CC(C(=O)O)N1C(=O)C(=O)N(Cc2cccc([N+](=O)[O-])c2)C1=O (stereo not drawn)
- IC50 [9]: 2000 nM

SMILES: O=P(O)(O)C(F)(F)c1ccc(C[C@@](c2ccccc2)(c2ccc(C(F)(F)P(=O)(O)O)cc2)n2nnc3ccccc32)cc1
- IC50 [5]: 16 nM

SMILES: O=C1C(=O)N(C2(C(=O)O)CCCCC2)C(=O)N1Cc1ccc(Cl)cc1Cl
- IC50 [9]: 50 nM

SMILES: O=C1CN(c2c(O)cc(CC3CCCCC3)cc2F)S(=O)(=O)N1
- IC50 [12]: 80 nM

SMILES: O=[N+]([O-])c1cc(S(=O)(=O)C(F)(F)F)ccc1Oc1ccc(S(=O)(=O)c2ccc(Oc3ccc(S(=O)(=O)C(F)(F)F)cc3[N+](=O)[O-])cc2)cc1
- IC50 [1]: 400 nM

SMILES: O=C(Cc1ccccc1)C(Cc1ccc(C(F)(F)P(=O)(O)O)cc1)(Cc1ccc(C(F)(F)P(=O)(O)O)cc1)C(=O)Cc1ccccc1
- IC50 [2]: 40 nM
- Ratio IC50 [4]: 250

SMILES: O=C(c1ccc(CN(Cc2ccc(C(=O)C(F)(F)P(=O)(O)O)cc2)S(=O)(=O)c2ccc(Br)cc2OC(F)(F)F)cc1)C(F)(F)P(=O)(O)O
- IC50 [6]: 500 nM

The remaining lines, values ahead:

- IC50 [1]: 200 nM
SMILES: CCCCCCCC/C(=C/Cn1oc(=O)[nH]c1=O)c1cccc(OCc2nc(-c3ccc(C(F)(F)F)cc3)oc2C)c1

- IC50 [2]: 6 nM
- IC50 [3]: > 50000 nM
SMILES: O=C(c1ccccc1)C(Cc1ccc(C(F)(F)P(=O)(O)O)c(Cl)c1)c1ccccc1 (stereo not drawn)

- IC50 [1]: 200 nM
SMILES: O=C(O)C(=O)c1sc2c(c1C(=O)O)CCN[C@@H]2CNCc1ccc(O)cc1

- IC50 [6]: 500 nM
SMILES: O=C(c1ccc(CN(Cc2ccc(C(=O)C(F)(F)P(=O)(O)O)cc2)S(=O)(=O)c2cc(F)ccc2F)cc1)C(F)(F)P(=O)(O)O

- Ki [10]: 2100 nM
- Ratio Ki [7]: 20
SMILES: COC(=O)c1c(O)cccc1OC/C=C/c1cccc(-c2onc(C(=O)O)c2N)c1

- IC50 [11]: 40 nM
SMILES: O=C(O)CNC(=O)c1ccc(N2C(=O)/C(=C/c3cn(-c4ccccc4)nc3-c3cccc(F)c3)SC2=S)cc1

- Ki [10]: 6900 nM
- Ratio Ki [7]: 20
SMILES: COC(=O)c1c(O)cccc1OC/C=C/c1ccc(F)c(-c2cc(C(=O)O)no2)c1

- IC50 [11]: 190 nM
SMILES: C/C(=N\NC(=S)Nc1cccc(F)c1)c1ccc2c(c1)NC(=O)CO2

- IC50 [8]: 12000 nM
SMILES: O=C(O)CCCCO/N=C(\c1cccc(C(F)(F)F)c1)c1ccncn1

- IC50 [12]: 80 nM
SMILES: CS(=O)(=O)Oc1c(Cl)cccc1Cc1ccc(N2CC(=O)NS2(=O)=O)c(O)c1
